Measurements: patent US10155807B2, “Treating alcohol-mediated disorders by inhibition of RGS6” (UNIVERSITY OF IOWA RESEARCH FOUNDATION, priority 2014, dated 2018)

What was measured:
[1] = tested on: neonatal VCM isolated from WT and RGS6−/− mice; details: 1 μM, 1.5 hour pre-treatment; 200 mM EtOH 24 hours; WT vs RGS6−/− VCM
Description: Twenty-four hours after isolation and plating, cells were treated with 200 mM EtOH (24 hours) in the presence or absence of DPI (1 μM, 1.5 hour pre-treatment) where indicated. […] Intracellular ROS generation was estimated using the cell-permeable oxidation-sensitive probe, CM-H2DCFDA (Sigma) as described previously (Maity et al., J Biol Chem. 2011; 286(2):1409-19). Briefly, cells were harvested by centrifugation, washed three times with ice-cold PBS, re-suspended in PBS and incubated with 5 μM CM-H2DCFDA for 20 minutes at 37° C. After incubation cells were again washed and lysed in PBS with 1% Tween 20. ROS level was determined at the ratio of dichlorofluorescein excitation at 480 nm to emission at 530 nm.

RGS6−/− mice [2] = test: Short-term free choice alcohol consumption with daily GABABR antagonist treatment; assay type: in vivo; details: 12.5 mg/kg i.p. daily; 8% EtOH free choice phase
From the text: RGS6 was identified as a critical negative regulator of cerebellum GABABR-regulated motor behavior (Maity et al., J Biol Chem. 2012; 287(7):4972-81). The involvement of GABABR signaling in the reduction in alcohol drinking observed in mice lacking RGS6 was investigated. […] Both the time course of GABABR-induced activation and deactivation of the mitogen activated protein kinase (MAPK) signaling cascade were pro-longed in the cortex of RGS6^−/− mice. […] To directly test the involvement of GABABR signaling in the reduction in alcohol seeking behavior seen in RGS6^−/− mice, the short-term free choice EtOH consumption paradigm was repeated with the addition of daily GABABR antagonist treatments.
Short-term alcohol consumption was measured in WT and RGS6^−/− mice essentially as previously described (Lockridge et al., Alcohol. 2012; 46(4):389-400). First, mice were individually housed for 2 days prior to the experiment. Each cage was then outfitted with two drinking bottles made from graduated serological pipettes sealed with parafilm to prevent evaporation and attached to each cage. […] Volume levels were recorded daily, tubes refilled and mice weighed. […] Alcohol (or saccharin/quinine) preference was calculated by dividing the EtOH volume consumed by the total fluid intake.

[3] = target: T1, RGS6:Gαo protein:protein interaction (ppi) (Homo sapiens, UniProt P49758); test: Alpha Screen dose response, RGS6:Gαo protein:protein interaction; assay type: binding; details: for IC50: Alpha Screen dose response, truncated RGS6 construct, read-out: IC50 for inhibition of RGS6:Gαo ppi; for selectivity for inhibiting the RGS6:Gαo ppi over the assay (control): ppi vs assay counter-screen
T1 sequence (P49758 336-441 limits assumed): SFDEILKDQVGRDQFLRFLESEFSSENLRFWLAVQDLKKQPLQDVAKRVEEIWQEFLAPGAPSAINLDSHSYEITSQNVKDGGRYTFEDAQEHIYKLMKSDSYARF
From the text: A high throughput screen based upon the protein-protein interaction between RGS6 and its cognate G protein has been developed. This is an approach used for other RGS proteins (Bodle et al. Future Med Chem 5: 995-1007, 2013; Mackie et al. J Biomol Screen 16: 869-877, 2011; Monroy et al. PloS one 8: e62247, 2013). Briefly, human RGS6 and G protein from E. coli is expressed and purified, which are then chemically modified to attach to microspheres. These microspheres (AlphaScreen) are then dispensed into high density experimental plates, with either 384 or 1536 wells per plate. Into each of these wells, an individual compound is dispensed, and through the use of a chemiluminescent reaction between the RGS6 and G protein coated beads, whether or not the two proteins are interacting is determined. […] A critical measure is the “Z-factor,” which indicates the ability to detect an inhibitor based on the screening signal strength, and the difference between positive and negative control values. A Z-factor between 0.5 and 1 is considered to be acceptable, and the Z-factor for the RGS6 assay is quite good, at 0.61. Using this method, a screen of 2320 compounds has been completed in 384-well plates. […] These compounds are being evaluated in testing for specificity and effectiveness in functional assays. Accessing the much larger 50,000 compound Chembridge library held by UI HTS will allow much larger coverage of “chemical space” to sample chemotypes that may represent RGS6 inhibitors with drug like properties.
As described herein, a role for RGS6 in the regulation of alcohol dependency traits, and that inhibition of this protein may act as a therapeutic intervention for the disease of alcohol addiction. As such, 2320 compounds were screened in an initial effort to discover small molecule inhibitors of the RGS6:Gαo protein:protein interaction (ppi). Alpha screen technology was used in this screen, where both proteins are conjugated to their respective donor or acceptor beads and if a ppi exists the proximity of the beads to each other results in emission of light at 520-620 nm. If a small molecule disrupts the ppi, then the intensity of light emitted is diminished.
IC50 values were obtained from dose response experiments using Alpha Screen technology. Compounds were determined to be promising based on these IC50 values, and based on the selectivity the compounds had for inhibiting the ppi versus inhibiting the assay. Since the Alpha Screen assay utilizes emitted light produced by singlet oxygen interacting with the acceptor bead as a determinant of ppi, highly colored compounds, or compounds that act as oxygen scavengers can produce false positive inhibition of the assay. […] This was not determined for UI1956.
The compounds identified in this screen represent the first generation of RGS6 inhibitors. A larger screening campaign will yield molecules that are both potent and selective for inhibiting RGS6 while containing minimal reactive substructures thus cutting down on the possible side effects that reactive molecules often produce. An additional screen will utilize the full RGS6 protein. This differs from the preliminary screen above in that a truncated RGS6 construct was used for ease of purification. […]

RGS6−/− mice [4] = test: Activity measurement in home cage after baclofen (sedation); assay type: in vivo; details: 10 mg/kg i.p.; immobility time over 20 min
Description: After drug treatment mice were placed back in their home cage and behavior videotaped for 20 min. Videos were scored for total immobility time (no discernable ambulation, grooming, social or other behaviors) by an observer blinded to mouse genotype. Data are presented as percent total time spent immobile.

Row | Structure (SMILES) | IC50 [3] | selectivity for inhibiting the RGS6:Gαo ppi over the assay (control) [3] | further results
1 | c1ccc2c(c1)[I+]c1ccccc1-2 [DPI, diphenyleneiodonium] | – | – | alcohol-induced ROS generation in VCM [1]: significantly reduced ROS generation in WT but not RGS6^−/− VCM
2 | CC1(C)CO[C@@H](CC(=O)O)CN1 [SCH-50911] | – | – | effect on reduced EtOH consumption of RGS6−/− mice (RGS6−/− mice [2]): partially reversed the reduction in alcohol consumption
3 | Oc1ccc2c(c1)OCC1(O)Cc3cc(O)c(O)cc3C21 (centres unmarked) [UI1910] | 17 µM | 30 fold | –
4 | O=C1C=C2C[C@@]3(O)COc4cc(O)ccc4C3=C2C=C1O [UI1935] | 49 µM | 5 fold | –
5 | O=c1c(-c2cc(O)c(O)c(O)c2)coc2cc(O)c(O)c(O)c12 [UI1956] | 42 µM | – | –
6 | NCC(CC(=O)O)c1ccc(Cl)cc1 (centres unmarked) [baclofen] | – | – | sedative effect in RGS6−/− mice (RGS6−/− mice [4]): remarkably sensitized to the sedative effects
